Four compounds from PMC7362284, “Pharmacokinetic and Lipidomic Assessment of the In Vivo Effects of Parishin A-Isorhynchophylline in Rat Migraine Models” (Journal of Analytical Methods in Chemistry, 2020) can be followed below.

The data set is described as follows: Pharmacokinetic study in nitroglycerin-induced migraine model rats (plasma, HPLC-MS/MS). Format: in vivo, rat. Conditions: for CL/F / MRT last / MRT inf / Vd/F / half-life: female, Sprague-Dawley, po; for CL/F: read-out: CL z/F (converted); for MRT last: read-out: MRT (0 − t); for MRT inf: read-out: MRT (0 − ∞); for Vd/F: read-out: V z/F; for half-life: read-out: t1/2z (converted); for clearance rate (CL z/F), administration-alone group higher than the coadministration group: single administration versus PI coadministration. The procedure: Healthy Sprague-Dawley (SD) female rats weighing 180 g ± 20 were provided by Hunan SJA Laboratory Animal Co., Ltd. (animal license number: SCXK (Xiang) 2016-0002). Rats underwent adaptive feeding for one week and were fasted for 12 h. Rats had open access to water throughout the study. For pharmacokinetic analysis, 18 SD rats were randomly divided into 3 groups and 0.4 mL of nitroglycerin (dosage: 10 mg/kg) was injected into the forehead to establish the migraine model. […] For blood sampling, 0.3 mL of blood was taken from the rat orbit prior to drug administration and 0, 5, 15, 30, and 45 min and 1, 2, 4, 6, 8, 10, 12, and 24 h after administration. These blood samples were collected into EP tubes coated with heparin sodium. After centrifugation at 4000 rmp for 10 min, supernatants were collected and stored at −80°C.
The mixture was vortexed for 3 min and centrifuged for 10 min at 13000 rpm. 200 μL of supernatants was collected for LC/MS analysis. For GAS and PA assessments, 50 μL of geniposide (IS: 350 ng/mL) and 250 μL of methanol were added to 50 μL of the plasma sample. The mixture was vortexed for 3 min and centrifuged for 10 min at 13000 rpm. 200 μL of supernatants was collected into centrifuge tubes, dried in nitrogen, and dissolved in 200 μL of 5% acetonitrile solution (95 : 5, v : v).
For pharmacokinetic studies, the AB Sciex Triple Quad™ 4500 was used for detection. […] A flow rate of 0.5 mL/min was used with an injection volume of 2 μL. The gradient elution was 0.0–1.2 min, 5% B; 1.2–6.0 min, 5–35% B; 6.0–8.5 min, 35–95% B; 8.5–9.0 min, 5% B; and 9.0–10.0 min, 5% B. Under mass spectrometry conditions, the ESI positive ion mode with multiple reaction monitoring (MRM) was used for detection using the following parameters: ion source temperature = 550°C; ion spray voltage = 4500 V; curtain gas (nitrogen) = 25 psi; atomizing gas (GS 1) = 50 psi; auxiliary gas (GS 2) = 50 psi. […] The IS was pyrrolidone hydrochloride, m/z 357.1–134.1 (DP: 85 V; CE: 35 eV). For GAS and PA, the column temperature was controlled at 40°C; phase A was 0.1% aqueous formic acid, and phase B was acetonitrile; flow rate was 0.5 mL/min; injection volume was 2 μL. The gradient elution was as follows: 0.0–1.2 min, 5% B; 1.2–8.0 min, 5–95% B; 8.0–9.0 min, 95–5% B; 9.0–10.0 min, 5% B; […]. For mass spectrometry, the ESI negative ion mode with MRM mode detection was employed. Mass spectrometry parameters were as follows: ion source temperature = 550°C; ion spray voltage = −4500 V; curtain gas (nitrogen) = 25 psi; atomizing gas (GS 1) = 50 psi; auxiliary gas (GS 2) = 50 psi. Ion pairs were as follows: GAS, m/z 331.1–123.0 (DP: −60 V; CE: −20 V); PA, m/z 995.1–726.9 (DP: −165 V; CE: −39 V). The IS was geniposide, m/z 433.0–225 (DP: −165 V; CE: −20 eV).
DAS 3.2.8 software was used to analyze the plasma concentrations in the different groups across all experimental time points. Time-concentration curves were drawn using Sigma Plot 10.0. For lipidomics, raw data were converted to the common (mzData) format using Agilent MassHunter Qualitative Analysis B.08.00 software (Agilent Technologies, USA). In the R software platform, the XCMS program was used to assess peak identification times, retention time correction, and automatic integration pretreatments. Data were subjected to IS and weight normalization. Visualization matrices containing the sample name, m/z-RT pair, and peak area were obtained. […] After editing, data matrices were imported into SIMCA-P 13.0 (Umetrics, Umea, Sweden), mean-centered, and scaled to Pareto variance. Multivariate analysis was then conducted.

Setting [1] is: Combine: PI coadministered (ISO 40 mg/kg, PA 372.4 mg/kg) intragastric, migraine model rats, plasma.
[2] abbreviates: PI coadministration versus single administration, migraine model rats.
[3] abbreviates: Single: ISO alone 40 mg/kg intragastric, migraine model rats, plasma.
[4] abbreviates: Single: PA alone 372.4 mg/kg intragastric, migraine model rats, plasma.
Setting [5] is: rat, in vivo, Single: PA alone 372.4 mg/kg intragastric, migraine model rats, plasma.

SMILES strings stand for the structures. Where two headings read alike, the source gives them in different places.

For the compound `CC[C@H]1CN2CC[C@]3(C(=O)Nc4ccccc43)[C@@H]2C[C@@H]1/C(=C\OC)C(=O)OC` [RHY, rhynchophylline], under setting [1], the “AUC (0 − t)” value is recorded as 412.82 μg/L ∗ h, the “AUC (0 − ∞)” value is on record as 455.57 μg/L ∗ h, the C-max came out at 94.10 µg/L and the T-max stood at 0.96 h. Besides, under setting [2], the “AUC, coadministration higher than the administration-alone group” value is listed as 1.44 fold and the “half-life (t1/2z), coadministration higher than the administration-alone group” value (“half-life (t1/2z)” for short) was 3.46 fold. Further, under setting [3], the “AUC (0 − t)” value is 313.95 μg/L ∗ h, the “AUC (0 − ∞)” value was determined as 314.00 μg/L ∗ h, the C-max came to 88.35 µg/L and the T-max is recorded as 0.63 h. Where the note is “rat, in vivo, 40 mg/kg”, the CL/F is 5530 mL/min/kg, the MRT last was 3.21 h, the MRT inf stood at 3.21 h and the Vd/F amounted to 663 L/kg. Also, the half-life (rat, in vivo, 40 mg/kg) was 1.63 h. Besides, where the note is “migraine model rats”, the “clearance rate (CL z/F), administration-alone group higher than the coadministration group” value is recorded as 3.16 fold.
As to `CC[C@H]1CN2CC[C@@]3(C(=O)Nc4ccccc43)[C@@H]2C[C@@H]1/C(=C\OC)C(=O)OC` [ISO, isorhynchophylline], under setting [1], the “AUC (0 − t)” value is 1755.85 μg/L ∗ h, the “AUC (0 − ∞)” value is 1768.51 μg/L ∗ h, the C-max stood at 867.07 µg/L and the T-max stood at 0.58 h. Further, under setting [2], the “AUC, coadministration higher than the administration-alone group” value was determined as 1.31 fold and the “half-life (t1/2z)” value was determined as 1.99 fold. Further, under setting [3], the “AUC (0 − t)” value came to 1340.01 μg/L ∗ h, the “AUC (0 − ∞)” value is recorded as 1340.09 μg/L ∗ h, the C-max was 645.28 µg/L and the T-max is 0.54 h. Further, for the setting “rat, in vivo, 40 mg/kg”, the CL/F is 1480 mL/min/kg, the MRT last was 1.76 h, the MRT inf is 1.77 h and the Vd/F came out at 242 L/kg. In addition, where the note is “rat, in vivo, 40 mg/kg”, the half-life was 1.9 h. Besides, the “clearance rate (CL z/F), administration-alone group higher than the coadministration group” value (migraine model rats) is given as 3.15 fold.
For `O=C(CC(O)(CC(=O)OCc1ccc(O[C@@H]2O[C@H](CO)[C@@H](O)[C@H](O)[C@H]2O)cc1)C(=O)OCc1ccc(O[C@@H]2O[C@H](CO)[C@@H](O)[C@H](O)[C@H]2O)cc1)OCc1ccc(O[C@@H]2O[C@H](CO)[C@@H](O)[C@H](O)[C@H]2O)cc1` [PA, parishin A], for the setting “rat, in vivo”, the stability in plasma result is on record as “unstable” and the stability in rats result was “unstable”.
Consider `OCc1ccc(O[C@@H]2O[C@H](CO)[C@@H](O)[C@H](O)[C@H]2O)cc1` [GAS, gastrodin], for which, under setting [1], the “AUC (0 − t)” value was 12757.67 μg/L ∗ h, the “AUC (0 − ∞)” value was 13028.09 μg/L ∗ h, the C-max was determined as 3853.50 µg/L and the T-max is listed as 1.08 h. Further, under setting [2], the “AUC, coadministration higher than the administration-alone group” value turned out to be 1.31 fold; the “MRT, coadministration higher than the single-administration group” value is on record as 1.84 fold; the “half-life (t1/2z)” value stood at 2.79 fold. In addition, under setting [4], the “AUC (0 − t)” value came to 9934.28 μg/L ∗ h, the “AUC (0 − ∞)” value is on record as 9935.51 μg/L ∗ h, the C-max was found to be 4082.17 µg/L and the T-max was determined as 0.83 h. Under setting [5], the CL/F is 640 mL/min/kg, the MRT last came to 2.14 h, the MRT inf stood at 2.15 h and the Vd/F was 56.6 L/kg. Moreover, the half-life under setting [5] is 1.02 h.
